These results are taken from patent publication US7273880B2, “Selective NPY (Y5) antagonists” (H. Lunbeck A/S, priority 1999, dated 2007).

Data set [1] addresses T1, human Y5 receptor (hNPY-5) (Homo sapiens, UniProt Q15761).
T1 construct: expressed in transfected cells; host or cells: mouse fibroblast LM(tk-) cells, e.g. L-hY5-7 (ATCC CRL-11995)
T1 sequence (Q15761 1-445): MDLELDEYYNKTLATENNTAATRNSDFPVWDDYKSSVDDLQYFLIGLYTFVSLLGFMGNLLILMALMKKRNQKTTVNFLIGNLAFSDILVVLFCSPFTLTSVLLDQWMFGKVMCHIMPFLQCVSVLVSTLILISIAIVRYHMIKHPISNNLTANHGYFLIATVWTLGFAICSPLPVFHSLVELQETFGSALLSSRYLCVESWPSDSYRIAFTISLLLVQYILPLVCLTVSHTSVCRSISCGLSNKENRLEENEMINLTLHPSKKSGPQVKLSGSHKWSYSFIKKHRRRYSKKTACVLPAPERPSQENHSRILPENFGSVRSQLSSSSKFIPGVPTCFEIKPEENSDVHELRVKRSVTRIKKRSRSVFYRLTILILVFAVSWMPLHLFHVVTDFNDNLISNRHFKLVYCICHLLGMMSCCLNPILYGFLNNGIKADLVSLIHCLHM
Description: Radioligand binding to membranes, cloned human Y5 receptor. Conditions: cloned human NPY Y5 receptor, radioligand competition binding; Tables 1-3; read-out: Ki, nM hNPY-5. In outline: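 Competition binding on membranes from stably transfected 293 or LM(tk-) cells, with 0.08 nM ¹²⁵I-PYY in pH 7.4 HEPES buffer plus 0.1% BSA, 120 min at 30 °C, filtration and counting. Nonspecific binding defined by 300 nM human NPY, or 100 nM human PP for Y4; nonlinear regression.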

Counter-ions that a name gives are not always drawn.

On to `O=S(=O)(N[C@H]1CC[C@H](CNc2nc3c(s2)CCCc2ccc(F)cc2-3)CC1)c1cccnc1` [Example 62, trans-1-Aza-9-fluoro-4,5-dihydro-2-{4-(3-pyridyl)sulfonylamino}cyclohexylmethylamino-3-thia-benzo[e]azulene], for which the melting point (usually the temperature, or range, at which the solid turns liquid) lay in the range of 158 to 160 °C. In addition, the Ki (commonly the dissociation constant of the complex between target and ligand, obtained from inhibition or displacement) in data set [1] is 1.8 nM.
The corresponding values for `COc1ccc(C)cc1S(=O)(=O)N[C@H]1CC[C@H](CNc2nc3c(s2)CCOc2ccccc2-3)CC1` [Example 51, trans-1-Aza-4,5-dihydro-2-{4-(2-methoxy-5-methyl-phenyl)-sulfonylamino}cyclohexylmethylamino-6-oxa-3-thia-benzo[e]azulene] are 220 to 224 °C and 8.3 nM.
For `CS(=O)(=O)NCc1ccc(Nc2nc3c(s2)CCCc2ccc(F)cc2-3)cc1` [Example 90, N-{4-[(9-Fluoro-5,6-dihydro-4H-benzo[6,7]cyclohepta-[d][1,3]thiazol-2-yl)amino]benzyl}methanesulfonamide], the melting point was 148 to 150 °C. Moreover, the Ki in data set [1] was 5.7 nM.
The compound `CS(=O)(=O)NCCOCCNc1nc2c(s1)CCCc1ccc(F)cc1-2` [Example 57, 1-Aza-9-fluoro-4,5-dihydro-2-{2-(2-methylsulfonyl-amino)ethoxy}ethylamino-3-thia-benzo[e]azulene] had a melting point of 159 to 162 °C. The Ki in data set [1] was found to be 66 nM.
As to `CC(C)S(=O)(=O)NCCOCCNc1nc2c(s1)CCCc1ccc(F)cc1-2` (as salt: HCl) [Example 69, 1-Aza-9-fluoro-4,5-dihydro-2-(2-(2-isopropyl-sulfonylamino)-ethoxy)ethylamino-3-thia-benzo[e]-azulene], the melting point fell in the range of 50 to 55 °C.
The same measure, in the same setting: the figure for `COc1ccc(C)cc1S(=O)(=O)NCCOCCNc1nc2c(s1)CCCc1ccc(F)cc1-2` (as salt: HCl) [Example 58, 1-Aza-9-fluoro-4,5-dihydro-2-{2-[2-(2-methoxy-5-methylphenyl)sulfonylamino]ethoxy}ethylamino-3-thia-benzo[e]azulene] is 56 to 60 °C.
Still for that read-out and setting: the figure for `COCCN(C=O)[C@H]1CC[C@H](CNc2nc3c(s2)CCOc2ccccc2-3)CC1` (as salt: HCl) [Example 86, N-{4-[(4,5-dihydrobenzo[2,3]oxepino[4,5-d][1,3]thiazol-2-ylamino)methyl]cyclohexyl}-N-(2-methoxyethyl)formamide] is 164 to 166 °C; for `COc1ccc2c(c1)CCCc1sc(N[C@H]3CC[C@H](CNS(=O)(=O)N4CCOCC4)CC3)nc1-2` (as salt: hydrochloride) [Example 78, trans-N2-(4-(1-Morpholinylsulfonylaminomethyl)-cyclohexyl-8-methoxy-5,6-dihydro-4H-benzo[6,7]-cyclohepta[d][1,3]thiazol-2-amine hydrochloride] it is 130 to 132 °C; for `O=S(=O)(NCCCCCNc1nc2c(s1)CCCc1ccc(F)cc1-2)c1cccnc1` (as salt: salt) [Example 55, 1-Aza-9-fluoro-4,5-dihydro-2-(5-(3-pyridyl)sulfonyl-amino)pentylamino-3-thia-benzo[e]azulene] it is 84 to 86 °C.
The same measure, in the same setting: in the case of `COc1ccc2c(c1)CCCc1sc(N[C@H]3CC[C@H](CNS(=O)(=O)C(C)C)CC3)nc1-2` (as salt: salt) [Example 73, trans-1-Aza-4,5-dihydro-2-(4-isopropylsulfonyl-aminomethyl)-cyclohexylamino-8-methoxy-3-thia-benzo[e]-azulene] it was 87 to 89 °C; in that of `CC(C)N(C=O)C[C@H]1CC[C@H](Nc2nc3c(s2)CCCc2ccc(F)cc2-3)CC1` (as salt: salt) [Example 83, trans-1-Aza-9-fluoro-4,5-dihydro-2-(4-(N-isopropyl-formamido)methyl)cyclohexylamino-3-thia-benzo[e]-azulene], 106 to 107 °C.
